# From PubChem BioAssay (NCI)
# Values joined by “and” are separate entries in the source; they are usually repeats but may differ in a detail not shown here. Equal values may be shown once.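 Briefly, cells in 96-well plates were exposed to five compound concentrations for 48 h, and endpoints were estimated by linear interpolation. GI50 marks 50% less growth. TGI marks complete inhibition of growth.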
# Columns and labels:
# Assay in all cases: growth of human tumour cells (NCI), 48 h
# HOP-92 NSCLC = system: HOP-92 NSCLC
# K-562 leukemia = system: K-562 leukemia
# M14 melanoma = system: M14 melanoma
# NCI-H226 lung = system: NCI-H226 lung
# OVCAR-3 ovarian = system: OVCAR-3 ovarian
# OVCAR-8 ovarian = system: OVCAR-8 ovarian
# RXF 393 renal = system: RXF 393 renal
# SNB-75 CNS = system: SNB-75 CNS
# U251 CNS = system: U251 CNS
# NCI-H23 lung = system: NCI-H23 lung
SMILES,GI50 (HOP-92 NSCLC) [µM],TGI (HOP-92 NSCLC) [µM],GI50 (K-562 leukemia) [µM],TGI (K-562 leukemia) [µM],GI50 (M14 melanoma) [µM],TGI (M14 melanoma) [µM],GI50 (NCI-H226 lung) [µM],TGI (NCI-H226 lung) [µM],GI50 (OVCAR-3 ovarian) [µM],TGI (OVCAR-3 ovarian) [µM],GI50 (OVCAR-8 ovarian) [µM],TGI (OVCAR-8 ovarian) [µM],GI50 (RXF 393 renal) [µM],TGI (RXF 393 renal) [µM],GI50 (SNB-75 CNS) [µM],TGI (SNB-75 CNS),GI50 (U251 CNS) [µM],TGI (U251 CNS) [µM],TGI (NCI-H23 lung) [µM],GI50 (NCI-H23 lung) [µM]
CC(C)=NO.CC(C)=NO.CC(C)=NO.CC(C)=NO.[Ti],> 100,> 100,> 100,> 100,> 100,> 100,> 100,> 100,> 100,> 100,> 100,> 100,> 100,> 100,> 100,> 100 µM,> 100,> 100,–,–
CCOC(=O)C1C(=O)C(=O)N2CCc3c([nH]c4ccccc34)C12 (centres undefined),–,> 100,–,> 100,–,> 100,–,–,–,> 100,–,> 100,–,> 100,–,–,–,> 100,> 100,–
CN1C/C(=C\c2ccco2)c2nc(N)nc(-c3ccco3)c2C1,–,–,–,> 100,–,> 100,–,> 100,–,> 100,–,> 100,–,> 100,–,> 100 µM,–,> 100,> 100,–
CC1=C2[C@@H](c3ccccc3)C3C=CC2(C=C3C(F)(F)F)N(C(=O)NC2CCCCC2)C1=O (some centres undefined),–,> 100,–,> 100,–,> 100,–,–,–,> 100,–,> 100,–,> 100,–,> 100 µM,–,> 100,> 100,–
NC1=NN(c2ccccc2)C(=O)C1/C(=N\NC(=O)c1cc2ccccc2cc1O)C(=O)Nc1ccc(Cl)cc1 (centres undefined),–,71.3,–,> 100,–,74.7,–,> 100,–,> 100,–,> 100,–,–,–,54.8 µM,–,> 100,77.3,–
O=NNc1nc(-c2ccccn2)nc2ccccc12,–,–,–,> 100,–,22,–,62.5,–,> 100,–,> 100,–,–,–,> 100 µM,–,> 100,> 100,–
Cc1cc(C2(c3cc(C)c(O)c4ncccc34)OC(=O)c3ccccc32)c2cccnc2c1O,–,–,–,> 100,0.0162,–,–,–,–,–,–,> 100,–,> 100,–,6.82 µM and 8.1 µM,–,> 100,–,0.0145
Cc1cc2c(=O)cc(-c3ccncc3)oc2c(C(=O)O)c1C,–,> 100,–,–,–,–,–,> 100,–,> 100,–,> 100,–,> 100,–,> 100 µM,–,> 100,> 100,–
Cc1cc2c(SCc3ccccc3Cl)nc(N)nc2nc1C,–,> 100,–,–,–,> 100,–,–,–,> 100,–,> 100,–,> 100,–,> 100 µM,–,> 100,> 100,–
Nc1nc(N)c(-c2ccccc2)c(C(=O)Nc2nccs2)n1,–,> 100,–,> 100,–,> 100,–,> 100,–,> 100,–,> 100,–,> 100,–,–,–,> 100,> 100,–
O=C1NC2(CCCCC2)C2=C1CCCCC2,–,> 100,–,> 100,–,> 100,–,–,–,> 100,–,> 100,–,> 100,–,> 100 µM,–,> 100,> 100,–
CN(C)c1ccc(/C=C2\Cc3ccccc3C2=O)cc1Br,–,–,–,> 100,–,> 100,–,–,–,> 100,–,> 100,–,–,–,> 100 µM,–,> 100,> 100,–
O=[N+]([O-])C1(CO)COC(CCc2ccccc2)OC1 (centres undefined),–,> 100,–,> 100,–,> 100,–,–,–,> 100,–,> 100,–,> 100,–,> 100 µM,–,> 100,> 100,–
Clc1ccc(N=CNc2ccc(-c3nc4ccccc4[nH]3)cc2)cc1,59.1,> 100,1.56,17.2,> 100,> 100,65.4,> 100,5.35,> 100,64.1,> 100,> 100,> 100,36.1,> 100 µM,20.9,> 100,–,–
CC(C)C12CCC3(CCC4C(C)(C(=O)O)CCCC4(C)C3C1)C(CN)C2 (centres undefined),–,> 100,–,–,–,> 100,–,> 100,–,> 100,–,> 100,–,> 100,–,> 100 µM,–,> 100,72.1,–
CCCCCCCCCCCCCCCC(=O)NCC(OCC)OCC,–,> 100,–,–,–,> 100,–,> 100,–,> 100,–,> 100,–,> 100,–,> 100 µM,–,> 100,> 100,–
O=[N+]([O-])c1cccc(C2=NOC3CCCC23)c1 (centres undefined),–,> 100,–,> 100,–,> 100,–,> 100,–,> 100,–,> 100,–,–,–,> 100 µM,–,> 100,> 100,–
Cn1nc(-c2ccccc2)c(C(=O)/C=C/c2ccccc2)c(N2CCCC2)c1=O,–,6.23,–,40.9,–,35.3,–,–,–,–,–,76.5,–,23.9,–,–,–,26.4,29.9,–
Brc1ccc2c(c1)-c1ccccc1C1=NCCN12,1.33,5.74,0.857,5.1,1.48,3.16,–,–,2.08,8.04,0.573,12.1,1.29,3.23,1.53,4.15 µM,1.24,11.1,11.3,1.8
O=C1COc2cc3c(cc2N1)SCC(=O)N3,–,> 100,–,> 100,–,> 100,–,> 100,–,> 100,–,> 100,–,–,–,> 100 µM,–,–,> 100,–
Cc1nc(-c2cccnc2)sc1C(=O)/C=C/c1ccc(Cl)cc1Cl,–,> 100,–,> 100,–,–,–,> 100,–,> 100,–,> 100,–,> 100,–,> 100 µM,–,> 100,> 100,–
COc1cc([C@H]2c3cc(O)c(OC)cc3C[C@]3(O)[C@@H]2CO[C@@H]3O)ccc1O,–,> 100,–,> 100,–,> 100,–,> 100,–,> 100,–,> 100,–,–,–,> 100 µM,–,> 100,> 100,–
